Test results taken from the NIST ThermoML archive (doi:10.1021/je300199a).
“And” between values parts separate entries of the source, which are not always exact repeats. Equal entries are not always repeated. ± gives the expanded uncertainty stated by the source.

Settings: Calculated from knudsen effusion weight loss

## [Cu] [copper]
1211 K, Crystal
  vapor or sublimation pressure: 3.2e-06 ± 1e-06 kPa
1229 K, Crystal
  vapor or sublimation pressure: 2.6e-06 ± 8e-07 kPa
1249 K, Crystal
  vapor or sublimation pressure: 6.5e-06 ± 2e-06 kPa and 5.9e-06 ± 1.8e-06 kPa
1267 K, Crystal
  vapor or sublimation pressure: 1e-05 ± 2e-06 kPa
1281 K, Crystal
  vapor or sublimation pressure: 1.4e-05 ± 4e-06 kPa and 1.5e-05 ± 4e-06 kPa
1300 K, Crystal
  vapor or sublimation pressure: 2.1e-05 ± 6e-06 kPa and 1.9e-05 ± 6e-06 kPa
1314 K, Crystal
  vapor or sublimation pressure: 2.8e-05 ± 8e-06 kPa and 2.7e-05 ± 8e-06 kPa
1329 K, Crystal
  vapor or sublimation pressure: 4.5e-05 ± 1.4e-05 kPa and 3.8e-05 ± 1.2e-05 kPa
1343 K, Crystal
  vapor or sublimation pressure: 5.4e-05 ± 1.6e-05 kPa and 5.1e-05 ± 1.6e-05 kPa
1356 K, Crystal
  vapor or sublimation pressure: 7e-05 ± 2e-05 kPa
1370 K, Liquid
  vapor or sublimation pressure: 9e-05 ± 2e-05 kPa
1379 K, Liquid
  vapor or sublimation pressure: 0.00013 ± 4e-05 kPa
1384 K, Liquid
  vapor or sublimation pressure: 0.00012 ± 4e-05 kPa
1388 K, Liquid
  vapor or sublimation pressure: 0.00014 ± 4e-05 kPa
1397 K, Liquid
  vapor or sublimation pressure: 0.00015 ± 4e-05 kPa
1409 K, Liquid
  vapor or sublimation pressure: 0.00018 ± 6e-05 kPa and 0.00019 ± 6e-05 kPa
1421 K, Liquid
  vapor or sublimation pressure: 0.00023 ± 6e-05 kPa
1432 K, Liquid
  vapor or sublimation pressure: 0.00027 ± 8e-05 kPa and 0.00028 ± 8e-05 kPa
1434 K, Liquid
  vapor or sublimation pressure: 0.00033 ± 0.0001 kPa
1443 K, Liquid
  vapor or sublimation pressure: 0.00034 ± 0.0001 kPa
1454 K, Liquid
  vapor or sublimation pressure: 0.0004 ± 0.00012 kPa and 0.00041 ± 0.00012 kPa
1463 K, Liquid
  vapor or sublimation pressure: 0.00047 ± 0.00014 kPa and 0.00049 ± 0.00014 kPa
1474 K, Liquid
  vapor or sublimation pressure: 0.00055 ± 0.00016 kPa and 0.00057 ± 0.00018 kPa
1484 K, Liquid
  vapor or sublimation pressure: 0.00065 ± 0.0002 kPa and 0.0007 ± 0.0002 kPa
1494 K, Liquid
  vapor or sublimation pressure: 0.0007 ± 0.0002 kPa and 0.0008 ± 0.0002 kPa
1503 K, Liquid
  vapor or sublimation pressure: 0.0008 ± 0.0002 kPa and 0.0009 ± 0.0002 kPa
1512 K, Liquid
  vapor or sublimation pressure: 0.0008 ± 0.0002 kPa and 0.0011 ± 0.0004 kPa
1522 K, Liquid
  vapor or sublimation pressure: 0.0013 ± 0.0004 kPa and 0.0012 ± 0.0004 kPa
1530 K, Liquid
  vapor or sublimation pressure: 0.0015 ± 0.0004 kPa and 0.0014 ± 0.0004 kPa
1539 K, Liquid
  vapor or sublimation pressure: 0.0016 ± 0.0004 kPa
1547 K, Liquid
  vapor or sublimation pressure: 0.0018 ± 0.0006 kPa and 0.0019 ± 0.0006 kPa
1555 K, Liquid
  vapor or sublimation pressure: 0.0021 ± 0.0006 kPa
1565 K, Liquid
  vapor or sublimation pressure: 0.0023 ± 0.0006 kPa and 0.0024 ± 0.0008 kPa and 0.0027 ± 0.0008 kPa
1572 K, Liquid
  vapor or sublimation pressure: 0.0026 ± 0.0008 kPa and 0.0028 ± 0.0008 kPa and 0.0031 ± 0.001 kPa
1581 K, Liquid
  vapor or sublimation pressure: 0.0029 ± 0.0008 kPa and 0.0031 ± 0.001 kPa and 0.0035 ± 0.001 kPa
1588 K, Liquid
  vapor or sublimation pressure: 0.0031 ± 0.001 kPa and 0.0036 ± 0.0011 kPa and 0.004 ± 0.0013 kPa
1596 K, Liquid
  vapor or sublimation pressure: 0.0038 ± 0.0013 kPa and 0.0041 ± 0.0013 kPa and 0.0045 ± 0.0015 kPa
1604 K, Liquid
  vapor or sublimation pressure: 0.0039 ± 0.0013 kPa and 0.0046 ± 0.0015 kPa and 0.005 ± 0.0015 kPa
1611 K, Liquid
  vapor or sublimation pressure: 0.0042 ± 0.0013 kPa and 0.0052 ± 0.0017 kPa and 0.0055 ± 0.0017 kPa
1619 K, Liquid
  vapor or sublimation pressure: 0.0046 ± 0.0015 kPa and 0.0058 ± 0.0019 kPa and 0.006 ± 0.0019 kPa
1628 K, Liquid
  vapor or sublimation pressure: 0.005 ± 0.0017 kPa and 0.0066 ± 0.0021 kPa

## O=[Si] [silicon monooxide]
1211 K, Crystal
  vapor or sublimation pressure: 3e-06 ± 4e-06 kPa
1229 K, Crystal
  vapor or sublimation pressure: 1.6e-06 ± 1.4e-06 kPa
1249 K, Crystal
  vapor or sublimation pressure: 8e-06 ± 6e-06 kPa
1267 K, Crystal
  vapor or sublimation pressure: 1.3e-05 ± 1e-05 kPa
1281 K, Crystal
  vapor or sublimation pressure: 2.2e-05 ± 1.8e-05 kPa
1300 K, Crystal
  vapor or sublimation pressure: 4e-05 ± 4e-05 kPa
1314 K, Crystal
  vapor or sublimation pressure: 6e-05 ± 4e-05 kPa
1329 K, Crystal
  vapor or sublimation pressure: 9e-05 ± 6e-05 kPa
1343 K, Crystal
  vapor or sublimation pressure: 0.00013 ± 0.0001 kPa
1356 K, Crystal
  vapor or sublimation pressure: 0.0002 ± 0.00014 kPa
1370 K, Crystal
  vapor or sublimation pressure: 0.00028 ± 0.0002 kPa
1384 K, Crystal
  vapor or sublimation pressure: 0.0004 ± 0.0002 kPa
1397 K, Crystal
  vapor or sublimation pressure: 0.0005 ± 0.0004 kPa
1409 K, Crystal
  vapor or sublimation pressure: 0.0007 ± 0.0004 kPa
1421 K, Crystal
  vapor or sublimation pressure: 0.001 ± 0.0006 kPa
1432 K, Crystal
  vapor or sublimation pressure: 0.0013 ± 0.0008 kPa
1443 K, Crystal
  vapor or sublimation pressure: 0.0017 ± 0.001 kPa
1454 K, Crystal
  vapor or sublimation pressure: 0.0023 ± 0.0012 kPa
1463 K, Crystal
  vapor or sublimation pressure: 0.0029 ± 0.0016 kPa
1474 K, Crystal
  vapor or sublimation pressure: 0.0036 ± 0.002 kPa
1484 K, Crystal
  vapor or sublimation pressure: 0.005 ± 0.002 kPa
1494 K, Crystal
  vapor or sublimation pressure: 0.006 ± 0.002 kPa
1503 K, Crystal
  vapor or sublimation pressure: 0.007 ± 0.004 kPa
1512 K, Crystal
  vapor or sublimation pressure: 0.009 ± 0.004 kPa
1522 K, Crystal
  vapor or sublimation pressure: 0.011 ± 0.004 kPa
1530 K, Crystal
  vapor or sublimation pressure: 0.013 ± 0.006 kPa
1539 K, Crystal
  vapor or sublimation pressure: 0.015 ± 0.006 kPa
1547 K, Crystal
  vapor or sublimation pressure: 0.018 ± 0.008 kPa
1555 K, Crystal
  vapor or sublimation pressure: 0.021 ± 0.008 kPa
1565 K, Crystal
  vapor or sublimation pressure: 0.024 ± 0.01 kPa
